The source of these data is patent publication US9776997B2, “3-aryl-substituted imidazo[1,2-A]pyridines and their use” (Bayer Pharma Aktiengesellschaft, priority 2013, dated 2017).

Structures can show the parent of a compound that is named as a salt.

This experiment has as its target T1, recombinant guanylate cyclase reporter cell line (Rattus norvegicus, UniProt P19686+P20595).
T1 construct: expressed in transfected cells; host or cells: recombinant reporter cell line
T1 sequence (P19686 1-690): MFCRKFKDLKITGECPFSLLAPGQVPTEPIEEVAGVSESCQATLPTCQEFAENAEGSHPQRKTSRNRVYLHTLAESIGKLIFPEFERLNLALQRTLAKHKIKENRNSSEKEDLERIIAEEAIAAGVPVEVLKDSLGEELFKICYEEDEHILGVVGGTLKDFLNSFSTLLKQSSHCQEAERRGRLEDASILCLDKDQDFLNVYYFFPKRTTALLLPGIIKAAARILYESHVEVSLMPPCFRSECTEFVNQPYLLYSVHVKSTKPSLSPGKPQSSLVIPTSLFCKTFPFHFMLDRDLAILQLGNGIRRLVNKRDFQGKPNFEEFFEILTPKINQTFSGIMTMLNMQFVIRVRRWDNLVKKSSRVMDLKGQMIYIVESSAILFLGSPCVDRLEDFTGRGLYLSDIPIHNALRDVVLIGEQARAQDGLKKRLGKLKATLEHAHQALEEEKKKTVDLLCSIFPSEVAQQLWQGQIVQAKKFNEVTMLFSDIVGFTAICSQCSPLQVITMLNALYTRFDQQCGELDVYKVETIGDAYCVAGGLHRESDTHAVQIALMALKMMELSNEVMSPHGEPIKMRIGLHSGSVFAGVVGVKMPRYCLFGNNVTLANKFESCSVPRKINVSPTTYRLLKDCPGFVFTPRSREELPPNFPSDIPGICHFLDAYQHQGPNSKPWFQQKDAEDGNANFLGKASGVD
T1 sequence (P20595 1-619): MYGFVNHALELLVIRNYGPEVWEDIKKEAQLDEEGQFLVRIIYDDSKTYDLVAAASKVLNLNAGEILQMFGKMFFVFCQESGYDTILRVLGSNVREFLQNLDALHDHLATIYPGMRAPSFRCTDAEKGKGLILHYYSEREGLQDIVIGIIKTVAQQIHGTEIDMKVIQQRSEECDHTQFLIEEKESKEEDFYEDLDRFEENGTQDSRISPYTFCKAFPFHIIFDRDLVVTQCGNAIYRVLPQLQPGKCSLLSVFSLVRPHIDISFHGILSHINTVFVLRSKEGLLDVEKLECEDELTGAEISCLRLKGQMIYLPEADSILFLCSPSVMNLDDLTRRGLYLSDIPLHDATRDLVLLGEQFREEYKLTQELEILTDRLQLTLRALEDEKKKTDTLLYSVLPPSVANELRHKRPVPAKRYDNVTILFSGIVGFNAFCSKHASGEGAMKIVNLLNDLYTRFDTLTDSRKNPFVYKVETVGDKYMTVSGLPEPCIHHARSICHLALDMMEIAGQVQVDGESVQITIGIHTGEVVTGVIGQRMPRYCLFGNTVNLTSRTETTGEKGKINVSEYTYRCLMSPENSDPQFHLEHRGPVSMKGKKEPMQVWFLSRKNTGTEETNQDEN
As to the kind of experiment: Effect on a recombinant guanylate cyclase reporter cell line. Type of experiment: cell-based. The following applies: MEC = minimum effective concentration; in some cases mean values for individual determinations. How it is done: B-2. Effect on a Recombinant Guanylate Cyclase Reporter Cell Line
The cellular effect of the inventive compounds is determined using a recombinant guanylate cyclase reporter cell line, as described in F. Wunder et al., Anal. Biochem. 339, 104-112 (2005).
Representative MEC values (MEC=minimum effective concentration) for the inventive compounds are shown in the table below (in some cases as mean values for individual determinations): […]
`Cc1nc2c(OCc3c(F)cccc3F)cccn2c1-c1ccc(F)c(CN2CCOCC2)c1` [Example 44, 8-[(2,6-difluorobenzyl)oxy]-3-[4-fluoro-3-(morpholin-4-ylmethyl)phenyl]-2-methylimidazo[1,2-a]pyridine]: the MEC came to 3.0 µM.

For the compound `Cc1nc2c(OCc3c(F)cccc3F)cccn2c1-c1cn[nH]c1` [Example 45, 8-[(2,6-difluorobenzyl)oxy]-2-methyl-3-(1H-pyrazol-4-yl)imidazo[1,2-a]pyridine], the MEC is 0.1 µM.

As to `Cc1nc2c(OCc3c(F)cccc3F)cccn2c1-c1cccc(S(C)(=O)=O)c1` [Example 46], the MEC came to 0.2 µM.

Regarding `Cc1nc2c(OCc3c(F)cccc3F)cccn2c1-c1ccn[nH]1` [Example 47], the MEC is 0.3 µM.

Regarding `Cc1nc2c(OCc3c(F)cccc3F)cccn2c1-c1cccc(NS(C)(=O)=O)c1` [Example 48], the MEC amounted to 0.2 µM.

Consider `CCn1cc(-c2c(C)nc3c(OCc4c(F)cccc4F)cccn23)cn1` [Example 49], for which the MEC was found to be 0.3 µM.

For the compound `Cc1nc2c(OCc3c(F)cccc3F)cccn2c1-c1cnn(C)c1` [Example 50], the MEC came out at 0.3 µM.

For the compound `Cc1nc2c(OCc3c(F)cccc3F)cccn2c1-c1ccc2cn[nH]c2c1` [Example 51], the MEC stood at 0.3 µM.

On to `Cc1nc2c(OCc3c(F)cccc3F)cccn2c1-c1cnn(C(C)C)c1` [Example 52], for which the MEC stood at 0.3 µM.

Take `Cc1nc2c(OCc3c(F)cccc3F)cccn2c1-c1cccc2[nH]ncc12` [Example 53]: the MEC turned out to be 1.0 µM.

Take `Cc1nc2c(OCc3c(F)cccc3F)cccn2c1-c1ccc2[nH]ncc2c1` [Example 54]: the MEC amounted to 1.0 µM.

`Cc1nn(C)cc1-c1c(C)nc2c(OCc3c(F)cccc3F)cccn12` [Example 55]: the MEC is 1.0 µM.

For the compound `Cc1nc2c(OCc3c(F)cccc3F)cccn2c1-c1cnn(C)c1C` [Example 56], the MEC came out at 3.0 µM.

With `CCNc1nnc(-c2c(C)nc3c(OCc4c(F)cccc4F)cccn23)o1` [Example 57, 5-{8-[(2,6-Difluorobenzyl)oxy]-2-methylimidazo[1,2-a]pyridin-3-yl}-N-ethyl-1,3,4-oxadiazole-2-amine], the MEC turned out to be 1.0 µM.

In the case of `Cc1nc2c(OCc3c(F)cccc3F)cccn2c1-c1nnc(N)o1` [Example 58, 5-{8-[(2,6-Difluorobenzyl)oxy]-2-methylimidazo[1,2-a]pyridin-3-yl}-1,3,4-oxadiazole-2-amine], the MEC was determined as 3.0 µM.

Take `Cc1nc2c(OCc3c(F)cccc3F)cccn2c1-c1ccnc(-c2ccc(F)cc2)c1` [Example 59, 8-[(2,6-Difluorobenzyl)oxy]-3-[2-(4-fluorophenyl)pyridin-4-yl]-2-methylimidazo[1,2-a]pyridine]: the MEC turned out to be 1.0 µM.

On to `Cc1nc2c(OCc3c(F)cccc3F)cccn2c1-c1cnccn1` [Example 60, 8-[(2,6-Difluorobenzyl)oxy]-2-methyl-3-(pyrazin-2-yl)imidazo[1,2-a]pyridine], for which the MEC was 3.0 µM.

Consider `CCCCc1coc(-c2c(C)nc3c(OCc4c(F)cccc4F)cc(Cl)cn23)n1` [Example 61, 3-(4-Butyl-1,3-oxazol-2-yl)-6-chloro-8-[(2,6-difluorobenzyl)oxy]-2-methylimidazo[1,2-a]pyridine trifluoroacetate], for which the MEC worked out at 3.0 µM.

Consider `Cc1nc2c(OCC3CCCCC3)cccn2c1-c1nnc(-c2ncccn2)o1` [Example 62, 8-(Cyclohexylmethoxy)-2-methyl-3-[5-(pyrimidin-2-yl)-1,3,4-oxadiazol-2-yl]imidazo[1,2-a]pyridine], for which the MEC was 3.0 µM.

With `Cc1nc2c(OCC3CCCCC3)cccn2c1-c1nnc(-c2cccnc2)o1` [Example 64], the MEC was 3.0 µM.

`Cc1nc2c(OCC3CCCCC3)cccn2c1-c1nnc(C(C)O)o1` (stereo not shown) [Example 65]: the MEC came out at 3.0 µM.

As to `CCOCc1nnc(-c2c(C)nc3c(OCC4CCCCC4)cccn23)o1` [Example 66], the MEC came to 3.0 µM.

Regarding `COCc1nnc(-c2c(C)nc3c(OCC4CCCCC4)cccn23)o1` [Example 67], the MEC came out at 3.0 µM.

`COCCc1nnc(-c2c(C)nc3c(OCC4CCCCC4)cccn23)o1` [Example 68]: the MEC came to 3.0 µM.

Consider `Cc1nc(-c2nnc(-c3c(C)nc4c(OCC5CCCCC5)cccn34)o2)cs1` [Example 69], for which the MEC was 3.0 µM.

`CCC(C)c1nnc(-c2c(C)nc3c(OCC4CCCCC4)cccn23)o1` (stereo not shown) [Example 70]: the MEC turned out to be 3.0 µM.

Take `Cc1nc2c(OCC3CCCCC3)cccn2c1-c1nnc(CN2CCCC2=O)o1` [Example 71]: the MEC worked out at 3.0 µM.

Regarding `Cc1nc(C)n(Cc2nnc(-c3c(C)nc4c(OCC5CCCCC5)cccn34)o2)n1` [Example 72], the MEC amounted to 3.0 µM.

`Cc1nc2c(OCC3CCCCC3)cccn2c1-c1nnc(C2CCS(=O)(=O)C2)o1` (stereo not shown) [Example 73]: the MEC came out at 3.0 µM.

With `Cc1nc2c(OCC3CCCCC3)cccn2c1-c1nnc(C2CC2)o1` [Example 74], the MEC amounted to 3.0 µM.

Regarding `Cc1cc(OCc2c(F)cccc2F)c2nc(C)c(-c3cncc(C(=O)O)c3)n2c1` [Example 76, 5-{8-[(2,6-Difluorobenzyl)oxy]-2,6-dimethylimidazo[1,2-a]pyridin-3-yl}nicotinic acid trifluoroacetate], the MEC came to 3.0 µM.

Take `Cc1cc(OCc2c(F)cccc2F)c2nc(C)c(-c3cncc(C(N)=O)c3)n2c1` [Example 77, 5-{8-[(2,6-Difluorobenzyl)oxy]-2,6-dimethylimidazo[1,2-a]pyridin-3-yl}nicotinamide]: the MEC was found to be 0.1 µM.

Take `Cc1cc(OCc2c(F)cccc2F)c2nc(C)c(-c3cncc(C(=O)NC4CC4)c3)n2c1` [Example 78, N-Cyclopropyl-5-{8-[(2,6-difluorobenzyl)oxy]-2,6-dimethylimidazo[1,2-a]pyridin-3-yl}nicotinamide trifluoroacetate]: the MEC turned out to be 0.1 µM.

Regarding `Cc1cc(OCc2c(F)cccc2F)c2nc(C)c(-c3nccc(C(N)=O)n3)n2c1` [Example 80, 2-{8-[(2,6-Difluorobenzyl)oxy]-2,6-dimethylimidazo[1,2-a]pyridin-3-yl}pyrimidine-4-carboxamide trifluoroacetate], the MEC came to 0.3 µM.

In the case of `Cc1cc(OCc2c(F)cccc2F)c2nc(C)c(-c3nccc(C(=O)NC4CC4)n3)n2c1` [Example 81, N-Cyclopropyl-2-{8-[(2,6-difluorobenzyl)oxy]-2,6-dimethylimidazo[1,2-a]pyridin-3-yl}pyrimidine-4-carboxamide trifluoroacetate], the MEC turned out to be 3.0 µM.

`Cc1cc(OCc2c(F)cccc2F)c2nc(C)c(-c3cn[nH]n3)n2c1` [Example 82, 8-[(2,6-difluorobenzyl)oxy]-2,6-dimethyl-3-(2H-1,2,3-triazol-4-yl)imidazo[1,2-a]pyridine]: the MEC is 0.1 µM.

Turning to `Cc1cc(OCc2c(F)cccc2F)c2nc(C)c(-c3cnn(CC(C)(C)N)n3)n2c1` [Example 83, 1-(4-{8-[(2,6-Difluorobenzyl)oxy]-2,6-dimethylimidazo[1,2-a]pyridin-3-yl}-2H-1,2,3-triazol-2-yl)-2-methylpropan-2-amine], the MEC was determined as 0.3 µM.
